Read-outs that look alike come from different tables or passages of the source.
What was measured:
HIF-1α = target: T1, HIF-1α (Homo sapiens, UniProt Q16665); test: Analysis of HIF-1α protein expression (Western blot) in ARPE-19 cells under mixed hypoxic condition; assay type: cell-based; settings: concentration range at which HIF-1α expression is reduced by 50% vs untreated control
T1 construct: endogenous in cells; host or cells: ARPE-19 (ATCC CRL-2302)
Description: (§1) ARPE-19 cells (Human retinal pigment epithelial cells, ATCC CRL-2302) were cultured in DMEM/F12 (LM002-08, Welgene) medium containing 10% fetal bovine serum (FBS, 16000-044, Gibco) in an incubator at 37°C with 5% carbon dioxide. When the cells grew sufficiently, they were cultured in experimental culture dishes for protein isolation and medium supernatant acquisition.
(§2) Cells were detached from the culture dish using TrypLE™ Express (Gibco). After centrifugation at 1000 rpm for 3 minutes, the supernatant was removed. The cells were counted and seeded into new culture dishes. Normoxic conditions were maintained by culturing the cells in a 37°C incubator with 5% carbon dioxide, and hypoxic conditions were maintained by culturing the cells in a hypoxic incubator with 1% oxygen, 5% carbon dioxide, and 94% nitrogen gas.
In a disease of macular degeneration, hypoxia is a very important condition, and since the expression of downstream genes is regulated by HIF-1α, a transcription factor that is stabilized in hypoxic conditions, the following experiment was conducted to confirm this.
Mixed hypoxic condition was used for HIF-1α stability experiments, in which hypoxia was induced with 1% oxygen and the stability of HIF-1α was enhanced by treatment with cobalt chloride (CoCl2).
The compounds of each Example were diluted to 0.1 nM, 1 nM, 3 nM, 10 nM, 30 nM, 100 nM, 300 nM, 1 µM, and 10 µM in DMEM/F12 medium without fetal bovine serum, pretreated for 16 hours or 2 hours, and cultured for 1 hour or 24 hours in a mixed hypoxic condition. The cell medium was discarded, and protein lysates were obtained by rapidly treating with protein lysis buffer (RIPA Lysis and Extraction buffer, Thermo Fisher Scientific). LDS (4X Bolt ™ LDS Sample buffer) and reducing agent (10X Bolt ™ Sample Reducing Agent) were added together to the protein lysate, and heated at 70°C for 10 minutes. The lysate was separated by electrophoresis on a 4-12% Bis-Tris gel, transferred to a PVDF membrane, and blocked with 3% BSA (Albumin, Bovine, Fraction V, MPbio). The membrane was incubated overnight at 4°C with a mixture of anti-HIF-1α (ab179483, abcam) and anti-b-actin (MA515739, Invitrogen) antibodies at a ratio of 1:4000. The following day, the membrane was treated with a peroxidase-conjugated secondary antibody for 1 hour at room temperature, and the target protein was expressed using an ECL solution (Clarity ™ Western ECL substrate, Bio-rad) and quantified.
Based on the results of the expression level of HIF-1α in cells treated with compounds diluted from 10 µM to 0.1 nM, the concentration range of the compound at which the expression level of HIF-1α was reduced by 50% or less compared to the untreated control group was derived.

VEGF = test: Evaluation of VEGF protein secretion level (Human VEGF ELISA) in ARPE-19 cell medium under hypoxic conditions; assay type: cell-based
Description: as §1, §2
The expression of the downstream gene, angiogenesis inducer VEGF, is regulated by HIF-1α, a major transcription factor under hypoxic conditions, and the level of secreted VEGF protein can be quantitatively confirmed through ELISA (Enzyme Linked Immunosorbent Assay, Human VEGF Quantikine ELISA Kit, R&D systems). For this purpose, the following experiment was conducted.
The compounds of each Example were diluted to 0.1 nM, 1 nM, 3 nM, 10 nM, 30 nM, 100 nM, 300 nM, 1 µM and 10 µM in DMEM/F12 medium containing 1% fetal bovine serum, pretreated for 2 hours, and cultured for 24 hours under hypoxic conditions to obtain the cell medium supernatant. The supernatant was centrifuged at 1000 rpm for 3 minutes, and a specific amount was treated with a VEGF ELISA assay kit and the absorbance value was measured at 450 nm to quantitatively confirm the level of VEGF protein (see Table 1 below).
Based on the results of secreted VEGF protein expression levels in cell media treated with compounds diluted at concentrations ranging from 10 µM to 0.1 nM, the concentration range of the compound at which the secreted VEGF protein level was reduced by 50% or less compared to the untreated control group was derived.

[1] = values marked * in the table, mixed hypoxic condition (1% oxygen + CoCl2) for 24 hours, read-out: IC50 HIF-1α, Hypoxia(24h)
[2] = ARPE-19 cells, pretreated 2 hours, 24 hours hypoxic conditions, ELISA, read-out: concentration at which the secreted VEGF protein level was suppressed to less than 50%
[3] = ARPE-19 cells, pretreated 2 hours, 24 hours hypoxic conditions, secreted VEGF in medium supernatant by ELISA, concentration range reducing VEGF by 50% vs untreated control, read-out: IC50 VEGF
[4] = Experimental Example 2 (HIF-1α Western blot), read-out: concentration at which the expression level of VEGF was suppressed to less than 50%
[5] = mixed hypoxic condition (1% oxygen + CoCl2) for 1 hour, read-out: IC50 HIF-1α Hypoxia (1 hour)

T1 sequence (Q16665 whole entry): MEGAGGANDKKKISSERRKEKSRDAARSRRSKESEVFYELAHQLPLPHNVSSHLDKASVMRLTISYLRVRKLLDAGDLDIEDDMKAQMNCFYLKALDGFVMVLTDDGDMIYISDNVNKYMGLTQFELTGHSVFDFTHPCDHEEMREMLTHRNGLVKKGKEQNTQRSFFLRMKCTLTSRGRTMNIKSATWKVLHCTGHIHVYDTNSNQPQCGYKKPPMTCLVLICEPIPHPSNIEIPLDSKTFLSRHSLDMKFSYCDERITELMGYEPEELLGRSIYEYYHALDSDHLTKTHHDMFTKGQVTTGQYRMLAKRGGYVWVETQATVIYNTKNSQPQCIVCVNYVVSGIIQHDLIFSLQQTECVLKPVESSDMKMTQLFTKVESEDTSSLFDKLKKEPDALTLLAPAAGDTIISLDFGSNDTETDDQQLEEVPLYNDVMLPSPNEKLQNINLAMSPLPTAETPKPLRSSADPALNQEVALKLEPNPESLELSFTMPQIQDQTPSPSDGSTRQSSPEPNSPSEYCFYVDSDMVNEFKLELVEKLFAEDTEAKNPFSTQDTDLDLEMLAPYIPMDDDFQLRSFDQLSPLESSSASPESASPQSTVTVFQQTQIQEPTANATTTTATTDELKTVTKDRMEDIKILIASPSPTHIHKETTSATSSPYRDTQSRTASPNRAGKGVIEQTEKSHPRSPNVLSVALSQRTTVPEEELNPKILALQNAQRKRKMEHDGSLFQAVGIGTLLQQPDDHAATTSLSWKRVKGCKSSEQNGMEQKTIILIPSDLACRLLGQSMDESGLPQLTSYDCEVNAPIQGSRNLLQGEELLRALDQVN

Compound | DC50 (HIF-1α; [1]) [nM] | IC50 (VEGF; [2]) [nM] | IC50 (VEGF; [3]) [nM] | IC50 (VEGF; [4]) [nM] | DC50 (HIF-1α; [5]) [nM]
C[C@H](NC(=O)c1ncnc2nc(C3CCCC3)[nH]c12)c1cccc(-c2cnn(C)c2)c1 [Example 4, (S)-8-cyclopentyl-N-(1-(3-(1-methyl-1H-pyrazol-4-yl)phenyl)ethyl)-7H-purine-6-carboxamide] | – | – | 1000 to 10000 | – | 100 to 1000
COC(=O)C1CC(c2nc3ncnc(C(=O)NCc4cc(F)cc(-c5cnn(-c6ccc(F)cc6)c5)c4)c3[nH]2)C1 (single isomer, unassigned) [103(B), Methyl 3-(6-((3-fluoro-5-(1-(4-fluorophenyl)-1H-pyrazol-4-yl)benzyl)carbamoyl)-7H-purin-8-yl)cyclobutanecarboxylate] | > 10000 | – | > 10000 | – | –
O=C(NCc1cc(F)cc(-c2cnn(-c3ccc(F)cc3)c2)c1)c1ncnc2nc(C3CC4(C3)CC(F)(F)C4)[nH]c12 [Example 98, 8-(6,6-Difluorospiro[3.3]heptan-2-yl)-N-(3-fluoro-5-(1-(4-fluorophenyl)-1H-pyrazol-4-yl)benzyl)-7H-purine-6-carboxamide] | 1000 to 10000 | – | > 10000 | – | –
CN(Cc1cc(F)cc(-c2cnn(-c3ccc(F)cc3)c2)c1)C(=O)c1ncnc2nc(C3CCCC3)[nH]c12 [Example 112, 8-Cyclopentyl-N-(3-fluoro-5-(1-(4-fluorophenyl)-1H-pyrazol-4-yl)benzyl)-N-methyl-7H-purine-6-carboxamide] | > 10000 | – | > 10000 | – | –
O=C(NCc1ccc(-c2cnn(-c3ccc(F)cc3)c2)cc1)c1ncnc2nc(C3CCCC3)[nH]c12 [Example 108, 8-Cyclopentyl-N-(4-(1-(4-fluorophenyl)-1H-pyrazol-4-yl)benzyl)-7H-purine-6-carboxamide] | > 10000 | – | > 10000 | – | –
O=C(NCc1cc(F)cc(Nc2ccncc2)c1)c1ncnc2nc(C3CCCC3)[nH]c12 [Example 16, 8-Cyclopentyl-N-(3-fluoro-5-(pyridin-4-ylamino)benzyl)-7H-purine-6-carboxamide] | – | – | 100 to 1000 | – | < 100
O=C(NCc1cccc(-c2cnn(-c3ccc(F)cc3)c2)c1)c1ncnc2nc(C3CCCC3)[nH]c12 [Example 57, 8-Cyclopentyl-N-(3-(1-(4-fluorophenyl)-1H-pyrazol-4-yl)benzyl)-7H-purine-6-carboxamide] | < 100 | – | 100 to 1000 | – | –
O=C(NCc1cc(F)cc(-c2cnn(-c3ccc(F)cc3)c2)c1)c1ncnc2nc(C3CCCC3)[nH]c12 [Example 27, 8-Cyclopentyl-N-(3-fluoro-5-(1-(4-fluorophenyl)-1H-pyrazol-4-yl)benzyl)-7H-purine-6-carboxamide] | – | – | 100 to 1000 | – | < 100
O=C(NCc1cc(F)cc(-c2cnn(-c3ccc(F)cc3)c2)c1)c1ncnc2nc(C3CCC(F)(F)C3)[nH]c12 (stereo not shown) [Example 84, 8-(3,3-Difluorocyclopentyl)-N-(3-fluoro-5-(1-(4-fluorophenyl)-1H-pyrazol-4-yl)benzyl)-7H-purine-6-carboxamide] | – | < 100 | – | < 100 | –

Now from value to compound:

DC50 (HIF-1α; [1]) [nM] | IC50 (VEGF; [2]) [nM] | IC50 (VEGF; [3]) [nM] | IC50 (VEGF; [4]) [nM] | DC50 (HIF-1α; [5]) [nM] | Compound
< 100 | < 100 | < 100 | < 100 | – | O=C(NCc1cc(F)cc(-c2cnn(-c3cccnc3)c2)c1)c1ncnc2nc(C3CCC(F)(F)C3)[nH]c12 (stereo not shown) [Example 83, 8-(3,3-Difluorocyclopentyl)-N-(3-fluoro-5-(1-(pyridin-3-yl)-1H-pyrazol-4-yl)benzyl)-7H-purine-6-carboxamide]
– | – | 100 to 1000 | – | < 100 | COc1cccc(Nc2cc(F)cc(CNC(=O)c3ncnc4nc(C5CCCC5)[nH]c34)c2)c1 [Example 34, 8-Cyclopentyl-N-(3-fluoro-5-((3-methoxyphenyl)amino)benzyl)-7H-purine-6-carboxamide]
– | – | 100 to 1000 | – | < 100 | O=C(NCc1cc(F)cc(Nc2cccc(C(F)(F)F)c2)c1)c1ncnc2nc(C3CCCC3)[nH]c12 [Example 17, 8-Cyclopentyl-N-(3-fluoro-5-((3-(trifluoromethyl)phenyl)amino)benzyl)-7H-purine-6-carboxamide]
< 100 | – | 100 to 1000 | – | – | O=C(NCc1cc(F)cc(-c2cnn(-c3ccc(Cl)cc3)c2)c1)c1ncnc2nc(C3CCCC3)[nH]c12 [Example 58, N-(3-(1-(4-chlorophenyl)-1H-pyrazol-4-yl)-5-fluorobenzyl)-8-cyclopentyl-7H-purine-6-carboxamide]
– | – | 100 to 1000 | – | < 100 | O=C(NCc1cccc(F)c1)c1ncnc2nc(C3CCCC3)[nH]c12 [Example 13, 8-Cyclopentyl-N-(3-fluorobenzyl)-7H-purine-6-carboxamide]
– | – | 100 to 1000 | – | < 100 | COc1ccc(-n2cc(-c3cc(F)cc(CNC(=O)c4ncnc5nc(C6CCCC6)[nH]c45)c3)cn2)cc1 [Example 25, 8-Cyclopentyl-N-(3-fluoro-5-(1-(4-methoxyphenyl)-1H-pyrazol-4-yl)benzyl)-7H-purine-6-carboxamide]
– | – | 100 to 1000 | – | < 100 | O=C(NCc1cc(F)cc(-c2cnn(Cc3cccc(C(F)(F)F)c3)c2)c1)c1ncnc2nc(C3CCCC3)[nH]c12 [Example 29, 8-Cyclopentyl-N-(3-fluoro-5-(1-(3-(trifluoromethyl)benzyl)-1H-pyrazol-4-yl)benzyl)-7H-purine-6-carboxamide]
100 to 1000 | – | 100 to 1000 | – | – | O=C(NCc1cc(F)cc(-c2cnn(-c3ccc(F)cc3)c2)c1)c1ncnc2nc(C3CC(F)(F)C3)[nH]c12 [Example 92, 8-(3,3-Difluorocyclobutyl)-N-(3-fluoro-5-(1-(4-fluorophenyl)-1H-pyrazol-4-yl)benzyl)-7H-purine-6-carboxamide]
– | – | 100 to 1000 | – | < 100 | O=C(NCc1cc(F)cc(-c2cnn(-c3ccccn3)c2)c1)c1ncnc2nc(C3CCCC3)[nH]c12 [Example 30, 8-Cyclopentyl-N-(3-fluoro-5-(1-(pyridin-2-yl)-1H-pyrazol-4-yl)benzyl)-7H-purine-6-carboxamide]
< 100 | – | 100 to 1000 | – | – | O=C(NCc1cc(F)cc(-c2cnn(-c3ccc(F)cc3)c2)c1)c1nccc2nc(C3CCCC3)[nH]c12 [Example 93, 2-Cyclopentyl-N-(3-fluoro-5-(1-(4-fluorophenyl)-1H-pyrazol-4-yl)benzyl)-3H-imidazo[4,5-c]pyridine-4-carboxamide]
< 100 | – | 100 to 1000 | – | – | O=C(NCc1cc(Cl)cc(-c2cnn(-c3ccc(F)cc3)c2)c1)c1ncnc2nc(C3CCCC3)[nH]c12 [Example 104, N-(3-chloro-5-(1-(4-fluorophenyl)-1H-pyrazol-4-yl)benzyl)-8-cyclopentyl-7H-purine-6-carboxamide]
< 100 | < 100 | < 100 | < 100 | – | O=C(NCc1cc(F)cc(-c2cnn(-c3ccc(F)nc3)c2)c1)c1ncnc2nc(C3CCC(F)(F)C3)[nH]c12 (stereo not shown) [Example 82, 8-(3,3-Difluorocyclopentyl)-N-(3-fluoro-5-(1-(6-fluoropyridin-3-yl)-1H-pyrazol-4-yl)benzyl)-7H-purine-6-carboxamide]
